According to patent US5473051A, “Inhibition of Mac-1 receptor binding to fibrinogen using D30 homologs” (The Scripps Research Institute, priority 1991, dated 1995):
Values joined by “and” are separate entries in the source; they are usually repeats but may differ in a detail not shown here. Identical values can stand only once. “Also recorded” adds a separate entry of the source.

How the values were obtained:
THP-1 cells = experiment: Inhibition of THP-1 cell attachment to fibrinogen-coated wells; format: cell-based, human
Experimental: Cell attachment assays were performed to determine if the Plb polypeptide (SEQ ID NO 13) which was derived from the gamma chain of D30 from residue 195 to residue 201 would inhibit the binding of THP-1 cells to fibrinogen-coated plates as effectively as the larger polypeptide, P1 (SEQ ID NO 12). The assays were performed as described in Example 8C with the following modifications: the microtiter wells were coated with 10 μg/ml of fibrinogen overnight at room temperature to form fibrinogen-coated wells; the unoccupied sites on the wells were then blocked to prevent non-specific background with 3% gelatin for 30 minutes at room temperature; 2×10^5 THP-1 cells prepared as described in Example 8D2) were separately admixed with the polypeptides P1, […] and L10, the latter of which served as a control, ranging in concentration from 0.03 mg/ml to 1 mg/ml to form THP-1 cell-polypeptide admixtures; the resultant admixtures were maintained for 30 minutes at room temperature after which time the cells were admixed to the fibrinogen-coated plates as described in Example 8C.
The results of the inhibition of cell attachment assay are shown above in Table 2. The absorbance of crystal violet stain, indicating the relative number of cells that attached to the fibrinogen-coated wells, was measured at 600 nm. The absorbance values are tabulated in columns according to the concentration of each polypeptide separately tested in the assay. […] These six amino acid residues comprise the Mac-1 receptor binding site of fibrinogen.

Mac-1 receptor [1] = target: T1, Mac-1 receptor (Homo sapiens, UniProt P05107+P11215); experiment: Binding of 125I-P1 to monocytes and competition; design: Separate aliquots of the resuspended Mac-1 receptor-bearing neutrophils were stimulated with 10 μM of the chemotactic peptide; endogenous in cells; host or cells: neutrophils from blood of normal volunteers, stimulated with fMLP
Experimental: Anticoagulated blood was prepared as described in Example 2B. After resuspending the pelleted erythrocytes, mononuclear and polynuclear cells with a volume equal to the starting blood volume with chilled 0.14M PBS, 35 ml of the cell suspension were layered onto 15 ml of Ficoll-Hypaque (Pharmacia) in a 50 ml polypropylene tube and centrifuged at 400×g for 40 minutes at room temperature. The cells at the interface were carefully removed with sterile plastic pipettes and were then washed two times with excess 5 mM PBS-EDTA (ethylene diamine tetracetic acid). The washed cells were then centrifuged first at 400×g for 20 minutes at 4° C., the pellet was resuspended as above, then the suspension was centrifuged again at 120×g for 12 minutes at 4° C. The cell pellet was again resuspended to form a PMBC cell suspension. […]
Human monocytes were purified from the platelet-free PMBC cell suspension as described by Fischer et al., Academic Press, Inc., New York, pp: 43-47 (1981). […] The purity of the monocyte preparation was greater than 90% as assessed by alpha-naphthyl acetate esterase staining and the viability was greater than 95% as judged by trypan blue exclusion. […]
The specific cell-associated binding of radiolabelled P1 to monocytes was measured over 60 minutes at 10 minute intervals and was calculated as described in Example 6. […]

Mac-1 receptor [2] = target: T1, Mac-1 receptor; experiment: Inhibition of 125I-P1 binding to THP-1 cells; design: Separate aliquots of the resuspended Mac-1 receptor-bearing neutrophils were stimulated with 10 μM of the chemotactic peptide; endogenous in cells; details: one hour
Experimental: Similar binding assays and inhibition thereof were performed using the monocytic cell line THP-1 (ATCC TIB 202, Bethesda, Md.). THP-1 cells were maintained in RPMI 1640 supplemented with 10% fetal bovine serum (HyClone, Logan, UT), 20 mM Hepes, 100 μg/ml gentamycin, 2 mM L-glutamine and 10 μM beta-mercaptoethanol. The competitive inhibitors evaluated in the assay to compete for the binding of the labeled P1 polypeptide to THP-1 cells included the following:D30 prepared as described in Example 1; the irrelevant polypeptide L10 described above; the monoclonal antibody IB4 which recognizes the beta subunit of the Mac-1 receptor (Wright et al., Proc. Natl. Acad. Sci., USA, 80:5699-5703 (1983); the monoclonal antibody M1/70 which recognizes the alpha subunit of the Mac-1 receptor (Ho et al., J. Biol. Chem., 258:2766-2769 (1983); and a monoclonal antibody against tissue factor as described by Morrisey et al., Thromb. Res., 52:247-261 (1988 ).
The assays in which D30 or polypeptides derived therefrom were performed as described above and in Example 6. The assays in which antibodies were used as competitive inhibitors were performed as described in Example 2C using 50 μg/ml of each antibody. […] The amount of binding of radiolabelled P1 polypeptide to THP-1 cells was measured after a […] maintenance period in the absence or presence of unlabelled competitors. […]

neutrophils or monocytes = experiment: Cell attachment to polypeptide-coated wells; format: cell-based, human
Experimental: To determine the Mac-1 receptor-binding site on the gamma chain of D30, the synthetic polypeptides prepared above were separately evaluated in cell attachment assays. For these assays, wells of 96-well microtiter plates (Linbro/Titertek; Flow Laboratories, VA) were coated with 60 μl of a 1 mg/ml solution of individual synthetic polypeptides prepared above. The wells containing the dissolved polypeptides were maintained for 16 hours at 4° C. The wells were then washed twice with PBS and blocked for 30 minutes with 0.1% BSA in PBS. After a final wash, 100 μl of DMEM containing 1% fetal bovine serum and 2×10^5 cells/ml of either neutrophils or monocytes prepared respectively in Example 2B and Example 8D were admixed into each well. The cells were maintained for 30 minutes at room temperature to allow the cells to attach to the polypeptide-coated wells. Non-adherant cells were removed from the wells by washing twice with PBS. […]
Adherent cells were quantitated by staining with 0.5% crystal violet. […] The optical density (O.D.) at 550 nm was determined with an ELISA reader (Biotek Instruments). Non-specific adherence was determined by plating cells on BSA-coated wells for the appropriate period of time. Specific adhesion to a given polypeptide substrate was calculated by subtracting the O.D. obtained with cells plated on BSA from that observed for cells plated on individual polypeptides. […]

Mac-1 receptor [3] = target: T1, Mac-1 receptor; experiment: Inhibition of 125I-fibrinogen binding to THP-1 cells by polypeptide; design: Separate aliquots of the resuspended Mac-1 receptor-bearing neutrophils were stimulated with 10 μM of the chemotactic peptide; endogenous in cells; host or cells: neutrophils from blood of normal volunteers, stimulated with fMLP
Experimental: The specificity of the P1 polypeptide for the Mac-1 receptor on THP-1 cells was confirmed in assays where the binding of purified intact fibrinogen to THP-1 cells was inhibited by P1 but not by the irrelevant polypeptide, L10. The assays were performed as described in Example 6 with the exception that THP-1 cells prepared as described in Example 8D were used instead of neutrophils. The amount of polypeptide used in the assay ranged in concentration from 7 μg/ml up to 60 μg/ml.
The amount of radiolabelled fibrinogen bound to THP-1 cells was expressed as molecules/cell ×1000 and plotted on the ordinate against increasing polypeptide concentrations as shown in FIG. 7.

Mac-1 receptor [4] = target: T1, Mac-1 receptor; experiment: Competition of 125I-fibrinogen binding to stimulated neutrophils; design: Separate aliquots of the resuspended Mac-1 receptor-bearing neutrophils were stimulated with 10 μM of the chemotactic peptide; endogenous in cells; host or cells: neutrophils from blood of normal volunteers, stimulated with fMLP
Experimental: Fibrinogen was purified as described in Example 1 and radiolabelled as described for D30 in Example 2A. Mac-1 receptor-bearing neutrophils were prepared as described in 2B. Separate aliquots of stimulated neutrophils at a concentration of 1.5×10^7 cells/ml were simultaneously incubated with a predetermined subsaturating dose of ^125 I-labelled fibrinogen (50 μg/ml) and increasing concentrations of various competing proteins for 20 minutes at room temperature. The reaction in the admixture was terminated by centrifugation through silicon oils as described in Example 2. The amount of labelled Mac-1 receptor:fibrinogen complex was determined by gamma detection. Non-specific binding was calculated as described in Example 2 and subtracted from the total to calculate specific binding.
Unlabelled fibrinogen and fibrinogen fragments X, D:E and D obtained as described in Example 1A and B were evaluated for their ability to compete for labelled fibrinogen binding to stimulated neutrophils.
Fibrinogen fragments E and D30 obtained as described in Example 1B were evaluated for their ability to compete for labelled fibrinogen binding to stimulated neutrophils.

T1 sequence (P05107 23-769, other chains not shown): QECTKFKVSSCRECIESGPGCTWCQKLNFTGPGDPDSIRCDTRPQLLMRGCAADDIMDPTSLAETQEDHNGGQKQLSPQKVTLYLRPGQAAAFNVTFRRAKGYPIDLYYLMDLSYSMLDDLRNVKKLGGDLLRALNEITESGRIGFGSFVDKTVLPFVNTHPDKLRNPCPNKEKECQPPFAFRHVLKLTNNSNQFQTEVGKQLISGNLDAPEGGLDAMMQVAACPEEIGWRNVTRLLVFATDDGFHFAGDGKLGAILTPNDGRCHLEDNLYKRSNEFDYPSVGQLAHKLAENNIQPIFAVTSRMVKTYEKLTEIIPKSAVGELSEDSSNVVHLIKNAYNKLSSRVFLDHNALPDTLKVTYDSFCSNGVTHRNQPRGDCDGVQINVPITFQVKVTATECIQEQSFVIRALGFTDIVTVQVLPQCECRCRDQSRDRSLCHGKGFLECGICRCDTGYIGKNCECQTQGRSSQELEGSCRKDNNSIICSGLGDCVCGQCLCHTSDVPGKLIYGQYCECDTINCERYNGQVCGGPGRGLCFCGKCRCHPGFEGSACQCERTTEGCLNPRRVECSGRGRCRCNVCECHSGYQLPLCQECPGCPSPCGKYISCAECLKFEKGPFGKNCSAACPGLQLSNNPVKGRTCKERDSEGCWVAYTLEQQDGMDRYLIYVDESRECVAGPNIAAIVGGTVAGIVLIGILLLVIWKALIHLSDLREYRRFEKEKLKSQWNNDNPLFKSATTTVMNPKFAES

Row | total specific binding of P1 to THP-1 cells in the absence of competitors (Mac-1 receptor [2]) | inhibition of fibrinogen binding to THP-1 cells (in words) (Mac-1 receptor [3]; 7 to 60 μg/ml polypeptide) | polypeptide concentration giving maximal inhibition of fibrinogen binding to THP-1 cells (Mac-1 receptor [3]; 7 to 60 μg/ml tested) [µg/mL] | IC50 for inhibition of 125I-fibrinogen binding to stimulated neutrophils (Mac-1 receptor [4]; 50 μg/ml 125I-fibrinogen, 20 minutes at room temperature) [µg/mL] | competition of 125I-fibrinogen binding to stimulated neutrophils (in words) (Mac-1 receptor [4]; increasing concentrations of competitor) | Substance | inhibition of THP-1 cell attachment to fibrinogen (in words) (THP-1 cells; 0.03 to 1 mg/ml polypeptide) | polypeptide concentration giving maximal inhibition of THP-1 binding to fibrinogen (THP-1 cells; 0.03 to 1 mg/ml tested) | Absorbance at 600 nm (THP-1 cells attached to fibrinogen) (THP-1 cells; polypeptide 0.03 mg/ml) | Absorbance at 600 nm (THP-1 cells attached to fibrinogen) (THP-1 cells; polypeptide 0.125 mg/ml) | Absorbance at 600 nm (THP-1 cells attached to fibrinogen) (THP-1 cells; polypeptide 0.5 mg/ml) | Absorbance at 600 nm (THP-1 cells attached to fibrinogen) (THP-1 cells; polypeptide 0.60 mg/ml) | Absorbance at 600 nm (THP-1 cells attached to fibrinogen) (THP-1 cells; polypeptide 1.0 mg/ml) | competition of 125I-P1 binding to monocytes (Mac-1 receptor [1]; 1 mg/ml cold polypeptide) | binding of radiolabelled P1 to monocytes (Mac-1 receptor [1]; one hour assay, 20,000 cpm 125I-P1) | promotion of cell attachment (in words) (neutrophils or monocytes) | 125I-fibrinogen specifically bound in the absence of competitors (Mac-1 receptor [4]; stimulated neutrophils, 50 μg/ml 125I-fibrinogen)
1 | approximately 16,000 cpm | inhibited | 20 | – | – | KYGWTVFQKRLDGSV [P1, N-terminal lysine-tyrosine-glycine added] | effective at inhibiting cell attachment at all concentrations | 0,125 mg/ml | 1.02 | 0.42 | 0.36 | 1.12 | 0.48 | competitively inhibited; also recorded: competed | binds to monocytes in a non-saturable curve | promoting cells attachment | –
2 | – | – | – | 25 to 50 | compete | fibrinogen | – | – | – | – | – | – | – | – | – | – | 80,200±8,000 molecules/cell and 99,600±4,500 molecules/cell
